pIC50: −log10 of the molar value.
Biological target: BRD4 (Homo sapiens, UniProt O60885)
Assay: Time resolved fluorescence resonance energy transfer (TR-FRET) binding assay, bromodomain BRD4
Conditions: one of the FRET assays described; read-out: FRET BRD4 IC50

Structure (SMILES) | pIC50
[2H]C([2H])([2H])c1nnn(C)c1-c1cnc2c3c(NCC(F)(F)F)ncc(S(C)(=O)=O)c3n([C@H](c3ccccc3)C3CCOCC3)c2c1 [Example 277, 10-Methanesulfonyl-5-[4-(^2H3)methyl-1-methyl-1H-1,2,3-triazol-5-yl]-8-[(S)-oxan-4-yl(phenyl)methyl]-N-(2,2,2-trifluoroethyl)-3,8,12-triazatricyclo[7.4.0.0^2,^7]trideca-1(13),2(7),3,5,9,11-hexaen-13-amine] | > 9.00
[2H]C([2H])([2H])c1nnn(C)c1-c1cnc2c3ccc(N4CCN(C5CC5)CC4)nc3n([C@H](c3ccccc3)C3CCOCC3)c2c1 [Example 151, 11-(4-Cyclopropylpiperazin-1-yl)-5-[4-(^2H3)methyl-1-methyl-1H-1,2,3-triazol-5-yl]-8-[(S)-oxan-4-yl(phenyl)methyl]-3,8,10-triazatricyclo[7.4.0.0^2,^7]trideca-1(9),2(7),3,5,10,12-hexaene] | > 8.00
Cc1nnn(C)c1-c1cnc2c3cncc(S(C)(=O)=O)c3n(C(c3ccccc3)C3CCC(F)(F)CC3)c2c1 (centres unmarked) [Example 290, 8-[(4,4-Difluorocyclohexyl)(phenyl)methyl]-5-(dimethyl-1H-1,2,3-triazol-5-yl)-10-methanesulfonyl-3,8,12-triazatricyclo[7.4.0.0^2,^7]trideca-1(13),2(7),3,5,9,11-hexaene] | > 9.00
Cc1nnn(C)c1-c1cnc2c3ccc(N4CCC(C)(O)CC4)nc3n([C@H](c3ccccc3)C3CCOCC3)c2c1 [Example 180, 1-[5-(Dimethyl-1H-1,2,3-triazol-5-yl)-8-[(S)-oxan-4-yl(phenyl)methyl]-3,8,10-triazatricyclo[7.4.0.0^2,^7]trideca-1(9),2(7),3,5,10,12-hexaen-11-yl]-4-methylpiperidin-4-ol] | > 9.00
Cc1nnn(C)c1-c1cnc2c3ccc(N4CCS(=O)(=O)C(C)C4)nc3n(C(c3ccccc3)C3CCOCC3)c2c1 [Example 217, 4-[5-(Dimethyl-1H-1,2,3-triazol-5-yl)-8-[(S)-oxan-4-yl(phenyl)methyl]-3,8,10-triazatricyclo[7.4.0.0^2,^7]trideca-1(9),2(7),3,5,10,12-hexaen-11-yl]-2-methyl-1λ^6,4-thiomorpholine-1,1-dione] | > 8.00
COc1ncc(S(C)(=O)=O)c2c1c1ncc(-c3c(C)nnn3C)cc1n2[C@H](c1ccccc1)C1CCOCC1 [Example 46, 5-(Dimethyl-1H-1,2,3-triazol-5-yl)-10-methanesulfonyl-13-methoxy-8-[(S)-oxan-4-yl(phenyl)methyl]-3,8,12-triazatricyclo[7.4.0.0^2,^7]trideca-1(13),2(7),3,5,9,11-hexaene] | > 8.00
COc1nccc2c3ncc(-c4c(C)nnn4C)cc3n(C(c3c(F)cc(F)cc3F)C3CCOCC3)c12 (racemic) [Example 24, 5-(Dimethyl-1H-1,2,3-triazol-5-yl)-10-methoxy-8-[oxan-4-yl(2,4,6-trifluorophenyl)methyl]-3,8,11-triazatricyclo[7.4.0.0^2,^7]trideca-1(13),2(7),3,5,9,11-hexaene] | > 8.00
[2H]C([2H])([2H])c1nnn(C)c1-c1cnc2c3ccc(-c4c(C([2H])([2H])[2H])nnn4C)nc3n([C@H](c3ccccc3F)C3CCOCC3)c2c1 [Example 232, 8-[(S)-(2-Fluorophenyl)(oxan-4-yl)methyl]-5,11-bis[4-(^2H3)methyl-1-methyl-1H-1,2,3-triazol-5-yl]-3,8,10-triazatricyclo[7.4.0.0^2,^7]trideca-1(13),2(7),3,5,9,11-hexaene] | > 8.00
[2H]C([2H])([2H])C(=O)c1cc2c(cn1)c1ncc(-c3c(C)noc3C)cc1n2[C@H](c1ccc(F)cc1)C1CCOCC1 [Example 223, 1-[5-(Dimethyl-1,2-oxazol-4-yl)-8-[(S)-(4-fluorophenyl)(oxan-4-yl)methyl]-3,8,12-triazatricyclo[7.4.0.0^2,^7]trideca-1(13),2(7),3,5,9,11-hexaen-11-yl](^2H3)ethan-1-one] | > 8.00
[2H]C([2H])([2H])c1nnn(C)c1-c1cnc2c3ccc(N(C)CCNC)nc3n([C@H](c3ccccc3F)C3CCOCC3)c2c1 [Example 236, 8-[(S)-(2-Fluorophenyl)(oxan-4-yl)methyl]-N-methyl-5-[4-(^2H3)methyl-1-methyl-1H-1,2,3-triazol-5-yl]-N-[2-(methylamino)ethyl]-3,8,10-triazatricyclo[7.4.0.0^2,^7]trideca-1(13),2(7),3,5,9,11-hexaen-11-amine] | > 9.00
[2H]C([2H])([2H])c1nnn(C)c1-c1cnc2c3c(OC(C)C)ncc(S(C)(=O)=O)c3n(C(c3ncccc3F)C3CCOCC3)c2c1 (centres unmarked) [Example 70, 8-[(3-Fluoropyridin-2-yl)(oxan-4-yl)methyl]-10-methanesulfonyl-5-[4-(^2H3)methyl-1-methyl-1H-1,2,3-triazol-5-yl]-13-(propan-2-yloxy)-3,8,12-triazatricyclo[7.4.0.0^2,^7]trideca-1(13),2(7),3,5,9,11-hexaene] | > 9.00
[2H]C([2H])([2H])c1nnn(C)c1-c1cnc2c3c(F)c(C(C)(C)O)ncc3n([C@H](c3ccccc3)C3CCOCC3)c2c1 [Example 292, 2-{13-Fluoro-5-[4-(^2H3)methyl-1-methyl-1H-1,2,3-triazol-5-yl]-8-[(S)-oxan-4-yl(phenyl)methyl]-3,8,11-triazatricyclo[7.4.0.0^2,^7]trideca-1(13),2(7),3,5,9,11-hexaen-12-yl}propan-2-ol] | > 8.00
COc1nccc2c3ncc(-c4c(C)nnn4C)cc3n(C(c3cccc(F)c3)C3CCOCC3)c12 (single isomer, unassigned) [Example 20, 5-(Dimethyl-1H-1,2,3-triazol-5-yl)-8-[(3-fluorophenyl)(oxan-4-yl)methyl]-10-methoxy-3,8,11-triazatricyclo[7.4.0.0^2,^7]trideca-1(13),2(7),3,5,9,11-hexaene] | > 8.00
Cc1nnn(C)c1-c1cnc2c3ccc(N4CCC(C(=O)N(C)C)CC4)nc3n([C@H](c3ccccc3F)C3CCOCC3)c2c1 [Example 271, 1-[5-(Dimethyl-1H-1,2,3-triazol-5-yl)-8-[(S)-(2-fluorophenyl)(oxan-4-yl)methyl]-3,8,10-triazatricyclo[7.4.0.0^2,^7]trideca-1(13),2(7),3,5,9,11-hexaen-11-yl]-N,N-dimethylpiperidine-4-carboxamide] | > 8.00
Cc1nnn(C)c1-c1cnc2c3ccc(N4CCN(C(=O)N(C)C)CC4)nc3n([C@H](c3ccccc3F)C3CCOCC3)c2c1 [Example 268, 4-[5-(Dimethyl-1H-1,2,3-triazol-5-yl)-8-[(S)-(2-fluorophenyl)(oxan-4-yl)methyl]-3,8,10-triazatricyclo[7.4.0.0^2,^7]trideca-1(13),2(7),3,5,9,11-hexaen-11-yl]-N,N-dimethylpiperazine-1-carboxamide] | > 9.00
[2H]C([2H])([2H])C(C)(O)c1ccc2c3ncc(-c4c(C)nnn4C)cc3n([C@H](c3ccccc3)C3CCOCC3)c2n1 (stereo partly drawn) [Example 177, 2-[5-(Dimethyl-1H-1,2,3-triazol-5-yl)-8-[(S)-oxan-4-yl(phenyl)methyl]-3,8,10-triazatricyclo[7.4.0.0^2,^7]trideca-1(9),2(7),3,5,10,12-hexaen-11-yl](1,1,1-^2H3)propan-2-ol] | > 9.00
Cc1noc(C)c1-c1cnc2c3cnc(Cl)cc3n(C(c3ncccc3F)C3CCOCC3)c2c1 (centres unmarked) [Example 324, 11-Chloro-5-(dimethyl-1,2-oxazol-4-yl)-8-[(3-fluoropyridin-2-yl)(oxan-4-yl)methyl]-3,8,12-triazatricyclo[7.4.0.0^2,^7]trideca-1(9),2(7),3,5,10,12-hexaene] | > 5.82
Cc1nnn(C)c1-c1cnc2c3c(O)nc(C(C)(C)O)cc3n([C@@H](c3ncccc3F)C3CCOCC3)c2c1 [Example 312, 8-[(R)-(3-Fluoropyridin-2-yl)(oxan-4-yl)methyl]-11-(2-hydroxypropan-2-yl)-5-[4-(^2H3)methyl-1-methyl-1H-1,2,3-triazol-5-yl]-3,8,12-triazatricyclo[7.4.0.0^2,^7]trideca-1(9),2(7),3,5,10,12-hexaen-13-ol] | > 8.00
COc1ccc2c3ncc(-c4c(C)nnn4C)cc3n(C(c3cccc(F)c3F)C3CCOCC3)c2n1 (racemic) [Example 17, 8-[(2,3-Difluorophenyl)(oxan-4-yl)methyl]-5-(dimethyl-1H-1,2,3-triazol-5-yl)-11-methoxy-3,8,10-triazatricyclo[7.4.0.0^2,^7]trideca-1(13),2(7),3,5,9,11-hexaene] | > 8.00
[2H]C([2H])([2H])c1nnn(C)c1-c1cnc2c3c(OCC4CC4)ncc(S(C)(=O)=O)c3n([C@H](c3ccc(F)cc3)C3CCOCC3)c2c1 [Example 78, 13-(Cyclopropylmethoxy)-8-[(S)-(4-fluorophenyl)(oxan-4-yl)methyl]-10-methanesulfonyl-5-[4-(^2H3)methyl-1-methyl-1H-1,2,3-triazol-5-yl]-3,8,12-triazatricyclo[7.4.0.0^2,^7]trideca-1(13),2(7),3,5,9,11-hexaene] | > 9.00
CNCCN(C)c1ccc2c3ncc(-c4c(OC)nnn4C)cc3n([C@H](c3ccccc3F)C3CCOCC3)c2n1 [Example 255, 8-[(S)-(2-Fluorophenyl)(oxan-4-yl)methyl]-5-(4-methoxy-1-methyl-1H-1,2,3-triazol-5-yl)-N-methyl-N-[2-(methylamino)ethyl]-3,8,10-triazatricyclo[7.4.0.0^2,^7]trideca-1(13),2(7),3,5,9,11-hexaen-11-amine] | > 8.00
Cc1nnn(C)c1-c1cnc2c3c(OCC4CC4)ncc(S(C)(=O)=O)c3n([C@H](c3ccccc3)C3CCOCC3)c2c1 [Example 101, 13-(Cyclopropylmethoxy)-5-(dimethyl-1H-1,2,3-triazol-5-yl)-10-methanesulfonyl-8-[(S)-oxan-4-yl(phenyl)methyl]-3,8,12-triazatricyclo[7.4.0.0^2,^7]trideca-1(13),2(7),3,5,9,11-hexaene] | > 8.00
[2H]C([2H])([2H])c1nnn(C)c1-c1cnc2c3c(OC)ncc(S(C)(=O)=O)c3n(C(c3cccc(F)c3)C3CCOCC3)c2c1 (single isomer, unassigned) [Example 86, 8-[(3-Fluorophenyl)(oxan-4-yl)methyl]-10-methanesulfonyl-13-methoxy-5-[4-(^2H3)methyl-1-methyl-1H-1,2,3-triazol-5-yl]-3,8,12-triazatricyclo[7.4.0.0^2,^7]trideca-1(13),2(7),3,5,9,11-hexaene] | > 8.00

— patent US9725449B2, “Tricyclic compounds as anticancer agents” (BRISTOL-MYERS SQUIBB COMPANY, priority 2015, dated 2017)
